Series [1] can be described thus: Urinary excretion and renal clearance (24-hour urine collections, days 1-3). The settings on record: days 1-3; AQ-72/AQ-13 and MDCQ/CQ.
Series [2] in a line: Blood pharmacokinetics after oral dosing (fluorescence HPLC, noncompartmental WinNonlin model). The series is classed as in vivo, human. As to conditions: for AUC: read-out: AUCτ of metabolite; for MRT: read-out: MRT of metabolite (converted); for half-life: read-out: t1/2 of metabolite (converted). As for the experimental part: Study drugs were administered in the GCRC on an empty stomach between 8 and 9 AM the morning after admission (after fasting for ≥ 10 h).

The test system of series [3] is CQ-resistant P. falciparum. The settings on record: cited from earlier work.
Setting [4] is: human, whole blood, oral, 1750 mg, after 1,750 mg AQ-13 over 3 d, median (range).
Where [5] appears, read: human, whole blood, oral, after 700 mg AQ-13, median (range).
Where [6] appears, read: human, whole blood, after 600 mg oral dose of parent drug, median (range).

Each structure is given as a SMILES string. Read-outs that look alike come from different tables or passages of the source.

`CCNCCCNc1ccnc2cc(Cl)ccc12` [AQ-72]: the “mono-dealkylated metabolite/parent ratio in urine” value in series [1] is 23.6%. In addition, the “time after drug administration at which metabolite/parent ratio reached 1.0” value in series [2] (600 mg AQ-13, AQ-72/AQ-13 ratio) fell in the range of 3 to 6 days. Moreover, the “metabolite/parent ratio in blood at the Cmax of the parent drug” value in series [2] (600 mg dose, AQ-72/AQ-13 (mean) or MDCQ/CQ) was determined as 0.37. In addition, in series [2] (after oral 600 or 700 mg AQ-13 or 600 mg CQ), the “time to appearance of metabolite in the blood” value is ≤ 1 h. Also, the AUC stood at 262 µM·h in series [2] (human, whole blood, oral, 700 mg, after 700 mg AQ-13, median (range)); 440 µM·h in series [2] (setting [4]); 211 µM·h in series [2] (human, whole blood, po, 600 mg, after 600 mg oral dose of parent drug (CQ or AQ-13), whole blood, median (range)). The MRT was 17.4 days in series [2] (setting [4]), 18.6 days in series [2] (setting [5]) and 16.6 days in series [2] (setting [6]). Also, the half-life in series [2] (setting [4]) is 10.5 days; in series [2] (setting [5]), 12.3 days; in series [2] (setting [6]) it was 11.1 days. In series [2] (human, whole blood, oral, after 600 mg AQ-13, median, read-out: Tmax of metabolite), the Tmax amounted to 0.625 days. For the same compound, the highest concentration (Cmax) in series [2] (human, whole blood, after 600 mg oral dose of parent drug, median, read-out: Cmax of metabolite) was 590 nM. The “activity of major metabolite against CQ-resistant parasites” value in series [3] is given as “not active against CQ-resistant parasites”.

The record behind these values is article PMC1764434 (PLoS Clinical Trials, 2007).
